Measurements taken from article PMC5149017, “Synthesis and Acetylcholinesterase Inhibitory Evaluation of 4-(1,3-Dioxoisoindolin-2-yl)-N-Phenyl Benzamide Derivatives as Potential Anti-Alzheimer Agents” (Iranian Journal of Pharmaceutical Research : IJPR, 2016).

molecular target: T1, acetylcholinesterase from electric eel source (AChE, E.C. 3.1.1.7, Type V-S) (Electrophorus electricus, UniProt O42275); experiment: biochemical; details: Ellman test, preincubation 15 min at 25 °C, pH 8.0, triplicate, IC50 ± SD, read-out: IC50 (enzymatic assay, acetylcholinesterase inhibition)
T1 construct: Acetylcholinesterase enzyme extracted from electric eel was utilized; purchased Sigma-Aldrich (Steinheim, Germany) Type V-S; host or cells: electric eel tissue (extracted)
T1 sequence (O42275 24-633): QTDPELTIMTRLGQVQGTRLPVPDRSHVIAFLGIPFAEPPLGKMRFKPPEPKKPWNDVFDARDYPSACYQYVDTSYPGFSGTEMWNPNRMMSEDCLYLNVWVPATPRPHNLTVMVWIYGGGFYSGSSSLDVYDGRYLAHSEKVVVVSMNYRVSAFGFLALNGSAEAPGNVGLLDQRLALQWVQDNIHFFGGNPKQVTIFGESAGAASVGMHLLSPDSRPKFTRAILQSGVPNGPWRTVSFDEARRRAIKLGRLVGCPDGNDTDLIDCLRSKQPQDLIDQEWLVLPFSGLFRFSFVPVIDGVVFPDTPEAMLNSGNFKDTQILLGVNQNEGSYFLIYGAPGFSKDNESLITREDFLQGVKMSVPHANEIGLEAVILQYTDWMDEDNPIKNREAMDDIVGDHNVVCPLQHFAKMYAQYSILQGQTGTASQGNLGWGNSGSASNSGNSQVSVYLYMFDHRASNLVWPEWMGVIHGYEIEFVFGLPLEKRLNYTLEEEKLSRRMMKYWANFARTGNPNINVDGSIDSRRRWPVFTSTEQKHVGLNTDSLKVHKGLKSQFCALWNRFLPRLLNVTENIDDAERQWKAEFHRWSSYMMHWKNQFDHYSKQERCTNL
Description: Lyophilized powder of acetylcholinesterase from electric eel source (AChE, E.C. 3.1.1.7, Type V-S, 1000 unit) was purchased from Sigma-Aldrich (Steinheim, Germany). 5,5′-Dithiobis-(2-nitrobenzoic acid, DTNB), potassium dihydrogen phosphate (KH2PO4), dipotassium hydrogen phosphate (K2HPO4), potassium hydroxide (KOH), sodium hydrogen carbonate (NaHCO3), and acetylthiocholine iodide were purchased from Fluka (Buchs, Switzerland).
According to the literature, the Ellman test was performed for assessment of the anticholinesterase activity of intended compounds in-vitro. […] After rapid and immediate mixing the change of absorption was measured at 412 nm.
The blank reading contained 3 mL buffer, 200 µL water, 100 µL DTNB and 20 µL substrate. The reaction rates were calculated, and the percent inhibition of test compounds was determined. Each concentration was analyzed in triplicate, and IC50 ± SD values were determined graphically from inhibition curves (log inhibitor concentration vs. percent of inhibition) ([22], [23]).
Acetylcholinesterase enzyme extracted from electric eel was utilized for assessment of the potency of intended compounds.

`O=C(Nc1cccc(Cl)c1)c1ccc(N2C(=O)c3ccccc3C2=O)cc1` [Compound 4a, N-(3-Chlorophenyl)-4-(1,3-dioxoisoindolin-2-yl)benzamide] and `O=C(Nc1cccc(F)c1)c1ccc(N2C(=O)c3ccccc3C2=O)cc1` [Compound 4d, 4-(1,3-Dioxoisoindolin-2-yl)-N-(3-fluorophenyl)benzamide] cannot be ordered by IC50: > 250 µM for the first, > 250 µM for the second.

Compared with `O=C(Nc1ccccc1F)c1ccc(N2C(=O)c3ccccc3C2=O)cc1` [Compound 4c, 4-(1,3-Dioxoisoindolin-2-yl)-N-(2-fluorophenyl)benzamide], `O=C(Nc1ccccc1[N+](=O)[O-])c1ccc(N2C(=O)c3ccccc3C2=O)cc1` [Compound 4g, 4-(1,3-Dioxoisoindolin-2-yl)-N-(2-nitrophenyl)benzamide] is lower in IC50: > 250 µM for the first, 1.1 ± 0.25 µM for the second.

`COc1cccc(NC(=O)c2ccc(N3C(=O)c4ccccc4C3=O)cc2)c1` [Compound 4e, 4-(1,3-Dioxoisoindolin-2-yl)-N-(3-methoxyphenyl)benzamide] and `COc1ccc(NC(=O)c2ccc(N3C(=O)c4ccccc4C3=O)cc2)cc1` [Compound 4f, 4-(1,3-Dioxoisoindolin-2-yl)-N-(4-methoxyphenyl)benzamide] cannot be ordered by IC50: > 250 µM for the first, > 250 µM for the second.

`O=C(Nc1ccc(Cl)cc1)c1ccc(N2C(=O)c3ccccc3C2=O)cc1` [Compound 4b, N-(4-Chlorophenyl)-4-(1,3-dioxoisoindolin-2-yl)benzamide] and `O=C(Nc1ccc([N+](=O)[O-])cc1)c1ccc(N2C(=O)c3ccccc3C2=O)cc1` [Compound 4h, 4-(1,3-Dioxoisoindolin-2-yl)-N-(4-nitrophenyl)benzamide] cannot be ordered by IC50: > 250 µM for the first, > 250 µM for the second.
